Measurements as given in US20230139883A1, “Peptides for Inducing Differentiation” (Shimadzu Corporation, priority 2020, published 2023).

Tests used:
FGFR1 = experiment: Phage display selection against FGFR1 with Miseq analysis of the bound phages; format: binding; conditions: for 1 nM Num. of reads: phage library after panning Round 5, bound to 1 nM FGFR1; for 10 nM Num. of reads: phage library after panning Round 5, bound to 10 nM FGFR1; for 100 nM Num. of reads: phage library after panning Round 5, bound to 100 nM FGFR1; for 1 nM Ranking / 10 nM Ranking / 100 nM Ranking: rank by number of reads; for 1 nM Ranking: 1 nM FGFR1; for 10 nM Ranking: 10 nM FGFR1; for 100 nM Ranking: 100 nM FGFR1
Description: The collected phage library was mixed with 100 nM of FGFR3 solution and allowed to react overnight at 4° C. (Table 5: Panning Round 1). After the reaction, the binding phages were captured by magnetic beads modified with protein A, and washed three times with PBS-T, followed by eluting the bound phages with Gly-HCl (pH 2.0). After neutralizing with 2M Tris, the phages were infected to E. coli. After 4 hours of incubation, helper phages were added, and the E. coli were allowed to produce phages overnight. Next, phage solution was prepared from the culture supernatant. The prepared phage solution was mixed with FGFR3 solution and allowed to react overnight at 4° C. (Table 5: Panning Round 2). After the reaction, the bound phages were eluted. Phage solution prepared in the same way was mixed with FGFR3 solution and allowed to react at 4° C. for 1 hour (Table 5: Panning Round 3). After the reaction, the bound phages were eluted. This operation was repeated two more times, and after Panning Round 5, the bound phages were eluted. Note that as the rounds proceeded, the number of washes with PBS-T was increased. (Table 5). The titer of the Output phage in each round was also determined. The titer of phage was determined from the number of colonies obtained by incubating the E. coli TG1 strain contacted with the phage at 37° C. overnight. As shown in FIG. 3<Input phage (Round 5)>, the eluted phage library after panning was subjected to Human IgG Fc-immobilized plate, and negative selection was performed by collecting unbound phages. The phage library was then acted to FGFR1 prepared to concentrations of 100 nM, 10 nM, and 1 nM. Bound phages were then collected. The phagemid DNA of the collected phages was extracted, samples were prepared according to Illumina's protocol for Miseq, and a comprehensive analysis of the phagemid DNA was performed. Among the sequences obtained, 23 sequences with high incidence rates were selected (Table 6).

FGFR3 = experiment: Phage display selection against FGFR3 with Miseq analysis of the bound phages; format: binding; conditions: for 1 nM Num. of reads: phage library after panning Round 4, bound to 1 nM FGFR3; for 10 nM Num. of reads: phage library after panning Round 4, bound to 10 nM FGFR3; for 100 nM Num. of reads: phage library after panning Round 4, bound to 100 nM FGFR3; for 1 nM Ranking / 10 nM Ranking / 100 nM Ranking: rank by number of reads; for 1 nM Ranking: 1 nM FGFR3; for 10 nM Ranking: 10 nM FGFR3; for 100 nM Ranking: 100 nM FGFR3
Description: The collected phage library was mixed with 100 nM of FGFR3 solution and allowed to react overnight at 4° C. (Table 9: Panning Round 1). After the reaction, the binding phages were captured by magnetic beads modified with protein A, and washed three times with PBS-T, followed by eluting the bound phages with Gly-HCl (pH 2.0). After neutralizing with 2M Tris, the pages were infected to E. coli (TG1 strain). After 4 hours of incubation, helper phages were added, and the E. coli (TG1 strain) were allowed to produce phages overnight. Next, phage solution was prepared from the culture supernatant. The prepared phage solution was mixed with FGFR3 solution and allowed to react overnight at 4° C. (Table 9: Panning Round 2). After the reaction, the bound phages were eluted. Phage solution prepared in the same way was mixed with FGFR3 solution and allowed to react at 4° C. for 1 hour (Table 9: Panning Round 3). After the reaction, the bound phages were eluted. This operation was further repeated, and after Panning Round 4, the bound phages were eluted. Note that as the rounds proceeded, the number of washes with PBS-T was increased. (Table 9). The titer of the Output phage in each round was also determined. The titer of phage was determined from the number of colonies obtained by incubating the E. coli TG1 strain contacted with the phage at 37° C. overnight. The phage library eluted after panning of Example 7 (Table 9: Input phage (Round 4)) was subjected to Human IgG Fc-immobilized plate, and negative selection was performed by collecting unbound phages. The phage library was then acted to FGFR3 prepared to concentrations of 100 nM, 10 nM, and 1 nM. Bound phages were then collected. The genomic DNA of the collected phages was extracted, samples were prepared according to Illumina's protocol for Miseq, and a comprehensive analysis of the phage genomic DNA was performed. Among the sequences obtained, 20 sequences high incidence rates were selected (Table 11). The yeast cells acquired in the screening of Example 8 were seeded onto SDCAA agar plates and cultured. Fourteen single colonies formed on the agar plates were randomly selected, and for each clone, the peptide DNA sequence incorporated into the yeast expression plasmid was analyzed using the Sanger method (Table 12).

Sequence | 1 nM Num. of reads (FGFR1) | 10 nM Num. of reads (FGFR1) | 100 nM Num. of reads (FGFR1) | 1 nM Ranking (FGFR1) | 10 nM Ranking (FGFR1) | 100 nM Ranking (FGFR1) | 1 nM Num. of reads (FGFR3) | 10 nM Num. of reads (FGFR3) | 100 nM Num. of reads (FGFR3) | 1 nM Ranking (FGFR3) | 10 nM Ranking (FGFR3) | 100 nM Ranking (FGFR3)
CAAELAALDAELAALEGARLGKMSKVGKLIKLKEKLQNLKMAC [100n182] | 1428 | 1468 | 937 | 10 | 12 | 13 |  |  |  |  |  | 
CAAELAALEAELAALEGADAFTLGSAGKLMMLKEKLNHLKHAC [100n1348] | 349 | 473 | 346 | 27 | 30 | 30 |  |  |  |  |  | 
CAAELAALEAELAALEGAKKAEEGQKGKLYRLKNKLHYLKSAC [100n423] | 561 | 867 | 439 | 21 | 19 | 26 |  |  |  |  |  | 
CAAELAALEAELAALEGASTPTLESRGKLGSLIFKLRQLKVAC [F3-100n50] |  |  |  |  |  |  | 1149 | 820 | 1121 | 14 | 15 | 14
CAAELAALEAELAALEGAVGDKRKSKGKLMMLKQKLELLKGAC [100n85] | 6769 | 9230 | 7482 | 2 | 2 | 2 |  |  |  |  |  | 
CAAELAALEAELAALEGAWVEQVNRRGKLDGLKMKLQRLKLAC [100n51] | 704 | 1000 | 649 | 19 | 16 | 16 |  |  |  |  |  | 
CAAELAALEAELAALEGDCLAGGCSFGKLLNLKQKLIRLKRAC [100n108] | 873 | 1155 | 464 | 13 | 14 | 22 |  |  |  |  |  | 
CAAELAALEAELAALEGEGMSTLNRQGKLSVLKSKLLWLKHAC [F3-100n228] |  |  |  |  |  |  | 2006 | 1447 | 1753 | 5 | 6 | 7
CAAELAALEAELAALEGENVYTLGGLGKLMLLKYKLRELKGAC [F3-100n458] |  |  |  |  |  |  | 1304 | 789 | 1023 | 10 | 17 | 20
CAAELAALEAELAALEGETNMTVLMTGKLLVLKHKLEHLKWAC [F3-100n386] |  |  |  |  |  |  | 1216 | 781 | 1028 | 13 | 18 | 19
CAAELAALEAELAALEGFGGVVYSCEWQAVYLKYKLMRLKQAC [100n17] | 8443 | 10095 | 8500 | 1 | 1 | 1 |  |  |  |  |  | 
CAAELAALEAELAALEGGDEVPHVGGGKLKMLKYQLNNLKHAC [100n417] | 721 | 1010 | 762 | 18 | 15 | 14 |  |  |  |  |  | 
CAAELAALEAELAALEGGMATDHMNRGKLYRLKNKLHFLKIAC [100n781] | 352 | 262 | 228 | 26 | 48 | 40 |  |  |  |  |  | 
CAAELAALEAELAALEGGRFSGLQEKGKLYGLKNKLHYLKRAC [100n368] | 2077 | 2177 | 1695 | 8 | 9 | 11 |  |  |  |  |  | 
CAAELAALEAELAALEGINAVPMSGRGKLYSLKNKLHYLKNAC [100n12] | 273 | 267 | 258 | 30 | 46 | 34 |  |  |  |  |  | 
CAAELAALEAELAALEGLGGFFNLRTGKLDELKMKLQHLKQAC [100n84] | 795 | 854 | 563 | 15 | 20 | 19 |  |  |  |  |  | 
CAAELAALEAELAALEGMSNHTLGSIGKLMLLKDKLESLKEAC [100n1074] | 756 | 688 | 333 | 16 | 23 | 31 |  |  |  |  |  | 
CAAELAALEAELAALEGNTANDPTASGKLKYLKYKLSNLKHAC [100n606] | 872 | 894 | 609 | 14 | 18 | 18 |  |  |  |  |  | 
CAAELAALEAELAALEGPHPRHHHPHGKLKKLKRKLYKLKQAC [100n222] | 525 | 776 | 541 | 22 | 22 | 20 |  |  |  |  |  | 
CAAELAALEAELAALEGQTFMNPHRLGKLDKLKLKLVHLKRAC [100n8] | 4243 | 3717 | 1974 | 7 | 7 | 8 |  |  |  |  |  | 
CAAELAALEAELAALEGREPSGAMGSGKLKRLKYKLQNLKHAC [100n1793] | 493 | 493 | 395 | 23 | 29 | 29 |  |  |  |  |  | 
CAAELAALEAELAALEGSSMDHVAYTGKLRMLKFRLELLKGAC [100n1543] | 233 | 276 | 216 | 37 | 43 | 43 |  |  |  |  |  | 
CAAELAALEAELAALEGSVALGNKAGGKLRLLKLKLELLKDAC [100n1314] | 260 | 406 | 238 | 34 | 31 | 38 |  |  |  |  |  | 
CAAELAALEAELAALEGVGRLYHMASGKLDRLKGKLMVLKYAC [100n82] | 6561 | 7109 | 4896 | 3 | 4 | 5 |  |  |  |  |  | 
CAAELAALEAELAALEGVKELTLGTVGKLMSLKYKLWSLKQAC [100n83] | 4939 | 6581 | 3079 | 5 | 5 | 6 |  |  |  |  |  | 
CAAELAALEAELAALEGVPALVGQEGGKLVLLKWKLWRLKNAC [100n36] | 483 | 677 | 398 | 24 | 24 | 28 |  |  |  |  |  | 
